Assay results published in publication PMC10810651, “Discovery of novel and potent CDK8 inhibitors for the treatment of acute myeloid leukaemia” (Journal of Enzyme Inhibition and Medicinal Chemistry, 2024).
Where two headings read alike, the source gives them in different places.

Columns and labels:
CDK8 = CDK8 (Homo sapiens, UniProt P49336); assay: Biotin-pulldown assay; type: binding; design: endogenous in cells; host or cells: HCT-116; conditions: HCT-116 or CDK8-transfected HEK293T cells; 2 μM biotinylated compound; 1, 2, 4 μM
Sequence of CDK8 (P49336 whole entry): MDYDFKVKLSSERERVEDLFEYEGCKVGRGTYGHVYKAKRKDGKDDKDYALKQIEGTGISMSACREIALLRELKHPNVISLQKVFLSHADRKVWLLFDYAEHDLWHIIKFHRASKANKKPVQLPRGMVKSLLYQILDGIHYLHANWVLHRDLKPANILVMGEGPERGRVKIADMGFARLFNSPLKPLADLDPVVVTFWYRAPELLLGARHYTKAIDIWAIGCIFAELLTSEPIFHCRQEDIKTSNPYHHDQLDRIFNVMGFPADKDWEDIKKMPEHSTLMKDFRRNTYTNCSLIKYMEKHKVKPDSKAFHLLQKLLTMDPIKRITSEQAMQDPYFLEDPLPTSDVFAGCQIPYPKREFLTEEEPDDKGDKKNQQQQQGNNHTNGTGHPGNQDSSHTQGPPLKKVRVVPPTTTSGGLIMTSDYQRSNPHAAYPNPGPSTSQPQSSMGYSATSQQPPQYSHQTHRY
Procedure: In previous study, a biotinylated compound with favourable CDK8 inhibition activity was designed and synthesized. Here, the pulldown assay was performed to determine compound 12 could bind CDK8. HCT-116 cells or HEK293T cells transfected with CDK8 plasmid labelled were treated with 2 μM biotinylated compound and compounds 12 with different concentrations of 1 μM, 2 μM, 4 μM separately.
CO2 atmosphere incubator for 24 h. Then, medium with compound at the concentrations of 100, 20, 4, 0.8, 0.016 μM was added into each well for another 48 h and incubated with CCK-8 (10 μL) for 2 h at 37 °C. The absorbance value at 450 nm was measured by the microplate reader (PerkinElmer Envision).
The kinase inhibition was detected by ADP-Glo™ Kinase Assay (Promega) using a black 384-well plate. The active CDK8 kinase was diluted in mixture (5 ng enzyme, 0.5 μg substrate, 50 μM DTT, 1 μL reaction buffer and added ddH2O to 3 μL each well) and the final ATP concentrations of was 50 μM. […] The data was collected by the microplate reader. […]
were broken by ultr asonic treatment and centrifuged at 12000 rpm for 20 min. The supernatant was analyzed by western blot. […]
After co-treated with 2 μM biotinylated compound and compound 12 for 12 h, HCT-116 cells were lysed with NP-40 containing PMSF and centrifuged at 14000 r for 30 min at 4 °C. […] The samples were analyzed by western blot.

STAT1 S727 = assay: Phosphorylation of STAT1 S727, western blot; type: cell-based; conditions: HCT-116 cells, 1, 2, 4 μM, 12 h
Procedure: (§1) It has been reported that CDK8 could specifically target the transactivation domain of STAT1 at Ser727 phosphorylation. HCT-116 cells were treated with compounds 12 with different concentrations of 1 μM, 2 μM, 4 μM separately to verify compound 12 could inhibit the phosphorylation of STAT1 Ser727. […] It’s reported that CDK8 was also involved in S726 phosphorylation of STAT5 in AML cells.
(§2) Figure 6. Compound 12 inhibited phosphorylation of STAT1 S727 and STAT5 S726. (A) Compound 12 suppressed the phosphorylation of STAT1 S727 in a dose-dependent manner. HCT-116 cells were treated with compound for 12 h. (B) Compound 12 suppressed the phosphorylation of STAT5 S726 in a dose dependent manner. HL-60 cells were treated with or without compound for 12 h. The samples were analysed by Western blot.
(§3) 1.7 The effect of compound on phosphorylation of STAT1 S727
(§4) HCT-116 cells were seeded into 60 mm cultural dishes at a density of 1.5×10^6 cells per dishes. […] Levels of total STAT1, phosphorylated STAT1 S727, Y701 and GAPDH were analyzed. […]
(§5) Levels of total STAT5, phosphorylated STAT5 S726 and GAPDH were analyzed.
(§6) The results were expressed as the means ± SEMs (SPSS software), and the differences between groups were evaluated using Turkey’s method (GraphPad Software). […]

CYP3A4/5 = assay: CYP inhibition activity, 3A4/5 (M); type: in vitro ADME; conditions: human; CYP 3A4/5 (M)
Description: Table 7. CYP inhibition activity. | column: IC50 (μM) / 3A4/5 (M)

CYP 1A2 = CYP 1A2 (Homo sapiens, UniProt P05177); assay: CYP inhibition activity, 1A2; type: in vitro ADME
Sequence of CYP 1A2 (P05177 whole entry): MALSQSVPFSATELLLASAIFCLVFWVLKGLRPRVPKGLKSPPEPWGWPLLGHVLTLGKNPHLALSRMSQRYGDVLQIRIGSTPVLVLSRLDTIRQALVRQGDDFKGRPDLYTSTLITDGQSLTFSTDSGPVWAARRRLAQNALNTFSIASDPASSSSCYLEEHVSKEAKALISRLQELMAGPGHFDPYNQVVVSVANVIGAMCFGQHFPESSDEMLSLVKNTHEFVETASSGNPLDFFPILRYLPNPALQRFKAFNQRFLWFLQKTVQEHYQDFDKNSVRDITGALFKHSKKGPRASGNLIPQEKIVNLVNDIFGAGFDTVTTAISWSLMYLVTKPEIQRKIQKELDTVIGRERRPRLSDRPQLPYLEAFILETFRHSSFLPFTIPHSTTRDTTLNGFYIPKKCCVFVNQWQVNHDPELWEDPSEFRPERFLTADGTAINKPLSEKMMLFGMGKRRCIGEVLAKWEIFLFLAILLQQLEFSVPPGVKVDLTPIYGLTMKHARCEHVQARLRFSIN
Description: Table 7. CYP inhibition activity. | column: IC50 (μM) / 1A2

STAT5 S726 = assay: Phosphorylation of STAT5 S726, western blot; type: cell-based; conditions: HL-60 cells, 12 h
Procedure: as §1, §2, §3, §4, §5, §6

CDK9 = CDK9 (Homo sapiens, UniProt P50750); assay: CDKs selectivity, CDK9; type: biochemical
Sequence of CDK9 (P50750 whole entry): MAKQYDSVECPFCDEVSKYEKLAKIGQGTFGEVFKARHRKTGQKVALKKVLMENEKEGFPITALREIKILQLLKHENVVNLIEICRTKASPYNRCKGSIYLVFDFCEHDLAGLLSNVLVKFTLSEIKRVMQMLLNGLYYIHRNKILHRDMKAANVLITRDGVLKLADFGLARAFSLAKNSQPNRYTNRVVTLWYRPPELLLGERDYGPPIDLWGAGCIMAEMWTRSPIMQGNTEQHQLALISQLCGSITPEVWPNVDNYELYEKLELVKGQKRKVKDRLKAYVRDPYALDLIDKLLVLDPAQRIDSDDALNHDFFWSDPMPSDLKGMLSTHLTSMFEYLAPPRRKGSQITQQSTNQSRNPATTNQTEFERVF
Description: CDK7 and CDK9 with the same transcription function and CDK2 and CDK6 were selected to evaluate the selectivity of compound 12.

Caco-2 = Caco-2 permeability determination; type: in vitro ADME; conditions: Caco-2
[1] = Caco-2 permeability determination; type: in vitro ADME; conditions: human

NC(=O)c1cccc(-c2cnc3[nH]cc(-c4ccoc4)c3c2)c1 [Compound 12, 3-(3-(furan-3-yl)-1H-pyrrolo[2,3-b]pyridin-5-yl)benzamide]
Competition with biotinylated compound for binding to CDK8 (CDK8): could inhibit the binding of biotinylated compound to CDK8 | Phosphorylation of STAT1 S727 (STAT1 S727): significantly inhibited in a dose-dependent manner | IC50 (CYP3A4/5): > 5e-05 M | IC50 (CYP 1A2): > 50 µM | Phosphorylation of STAT5 S726 (STAT5 S726): could inhibit phosphorylation of STAT5 S726 in a dose-dependent manner | IC50 (CDK9): 0.474 ± 0.0253 µM | Permeability (in words) (Caco-2): high permeability | efflux ratio ([1]; Caco-2): 1.3 | recovery ([1]; Caco-2, Caco-2, A→B, read-out: Recovery A→B): 107% | recovery ([1]; Caco-2, Caco-2, B→A, read-out: Recovery B→A): 108% | Papp A→B ([1]; Caco-2, A→B): 27 ×10⁻⁶ cm/s | Papp B→A ([1]; Caco-2, B→A): 35.1 ×10⁻⁶ cm/s
